Several values for one entry are separate records, joined by “and”; a condition that tells them apart may be missing. Equal entries are not always repeated. Where two headings read alike, the source gives them in different places. Values belong to the compound of their own block, whether it stands above or below them.
Tests used:
[1] = system: respiratory syncytial virus (RSV A2); test: RSV inhibition assay: tetrazolium (MTT) based cell viability assay in RSV-infected HEp-2 cells (serial dilutions); conditions: for EC50: human respiratory syncytial virus
Text: (§1) The tetrazolium based cell viability assay is based upon the ability of mitochondrial dehydrogenase which is present in viable cells to catalyze the reduction of a yellow tetrazolium salt known as MTT [3-(4,5-dimethylthiazol-2-yl)-2,5-diphenylthtiazolium bromide] to a dark blue/purple formazon product, generally as described by K. Rubino et al., J. Virological Methods, 39, 55-67 (1992)
(§2) Formazan is only slightly soluble in aqueous solutions, and therefore appears as dark cell-associated crystals. The crystals may be readily solublized in an organic solvent and the absorbance of the resulting blue/purple solution may be quantified using a multi-well plate spectrophotometer.
RSV infection results in a marked reduction in cell viability and thus a lowered rate of formazan production. […] The measurement of viral growth as a function of cell viability allows the assay to be used for establishing levels of compound cytotoxicity in uninfected cells within the same assay. Thus, the assay provides a rapid colorimetric method for measuring RSV specific cytopathic effect.
(§3) The HEp-2 cells and RSV strain A2 virus which are used in the assay are publicly available and were obtained from the American Tissue Culture Collection. HEp-2 cells correspond to ATCC accession no. CCL32; and Respiratory Syncytial Virus, strain A2 corresponds to ATCC accession no. VR-1302. Respiratory syncytial virus was grown (i.e., multiplied) and titered in HEp-2 cells.
(§4) The RSV inhibition assay was carried out as follows. The assay was performed in 96 well microtiter plates seeded with 2.5×10^4 cells per well. To provide a sufficient number of cells to seed the plates, stock cultures of HEp-2 cells were first grown in tissue culture flasks to about 80-100% confluency. The cell layer was washed with room temperature PBS (without calcium and magnesium) and then trypsinized (JRH Biosciences cat. #59-22877P) in a minimal volume of trypsin solution at 37° C. to detach them from the growth surface. Detached cells were resuspended and carefully dispersed in Minimal Essential Medium (MEM) (JRH Biosciences cat. #210-3510) containing 2% FBS (fetal bovine serum) and the concentration of viable cells was determined by trypan blue exclusion. Cell density was adjusted to 2.5×10^5 viable cells/ml by further dilution in MEM+2% FBS.
(§5) Test compound(s) and positive control (ribavirin) were added and serially diluted in the microtiter plate to the desired concentrations (8 replicates/compound/concentration plus 8 control wells/plate which received no compound).
(§6) The cell suspension was divided into a first portion to which respiratory syncytial virus (RSV A2) was added at a multiplicity of infection of 1, and a second portion to which no virus was added. The virus-infected cell suspension was mixed by low speed vortexing and 100 μl of the virus-infected cell suspension was immediately added to half of the wells in the 96 well plate (corresponding to 4 replicates of each compound dilution). 100 μl of the virus-free cell suspension was added to the other half of the wells in the microtiter plate (corresponding to the other 4 replicates for each compound and dilution).
The plates were incubated at 37° C., 5% CO2 for 5 to 6 days.
After the incubation period, MTT (Sigma Chemical Co., St. Louis, Mo., Cat. #M2128) was dissolved in serum free MEM to give a 3 mg/ml solution and 100 μl of MTT solution was added to each well and the plates further incubated for 2 hours at 37° C. The reaction was stopped by aspiration of the media to chemical waste, being careful not to remove the formazan crystals, and 200 μl of isopropanol was added to the wells to dissolve the crystals.

[2] = Cytotoxicity in uninfected HEp-2 cells (MTT), same assay; assay type: cell-based; conditions: human, hep-2 cells
Text: as §1, §2
(§7) RSV infection results in a marked reduction in cell viability and thus a lowered rate of formazan production. The assay method gives a very low absorbance value (practically zero) in wells which contain virus-infected cells and no compound or a compound which lacks anti-RSV activity. Compounds which inhibit RSV replication should prevent cell death and will therefore result in an increased intensity of color of the formazan solution. The measurement of viral growth as a function of cell viability allows the assay to be used for establishing levels of compound cytotoxicity in uninfected cells within the same assay. Thus, the assay provides a rapid colorimetric method for measuring RSV specific cytopathic effect.
as §3, §4, §5
as §6, with “and dilution). A multiplicity of infection equal to 1 was selected based on the observation this concentration of virus is just sufficient to produce a cytopathic effect that essentially eliminated MTT metabolism in infected, untreated cells during the time course of the assay (determined previously by a viral dilution assay).” for “and dilution).”
(§8) The plates were incubated at 37° C., 5% CO2 for 5 to 6 days. […]

HEp-2 cells = test: as above; assay type: cell-based; conditions: 5 day assay, drug added on day 1, 7200 min
Text: as §1, §2, §7, §3, §4, §5
as §6, with “and dilution). A multiplicity of infection equal to 1 was selected based on the observation this concentration of virus is just sufficient to produce a cytopathic effect that essentially eliminated MTT metabolism in infected, untreated cells during the time course of the assay (determined previously by a viral dilution assay).” for “and dilution).”
as §8

[3] = Cytotoxicity in uninfected HEp-2 cells, single concentration of 200 μM replenished daily for 5 days; assay type: cell-based; conditions: human, solvent PBS (ribavirin: water)
Text: as §1, §7, §3
(§9) The RSV inhibition assay was carried out as follows. The assay was performed in 96 well microtiter plates seeded with 2.5×10^4 cells per well. […] Detached cells were resuspended and carefully dispersed in Minimal Essential Medium (MEM) (JRH Biosciences cat. #210-3510) containing 2% FBS (fetal bovine serum) and the concentration of viable cells was determined by trypan blue exclusion. […]
The cell suspension was divided into a first portion to which respiratory syncytial virus (RSV A2) was added at a multiplicity of infection of 1, and a second portion to which no virus was added. […] A multiplicity of infection equal to 1 was selected based on the observation this concentration of virus is just sufficient to produce a cytopathic effect that essentially eliminated MTT metabolism in infected, untreated cells during the time course of the assay (determined previously by a viral dilution assay).
(§10) After the incubation period, MTT (Sigma Chemical Co., St. Louis, Mo., Cat. #M2128) was dissolved in serum free MEM to give a 3 mg/ml solution and 100 μl of MTT solution was added to each well and the plates further incubated for 2 hours at 37° C. […] The optical density of the formazan/isopropanol solution from each well was determined using a Dynatech MR5000 multiplate reader at 570 nm with a 630 nm reference. […]

[4] = cited from earlier work
[5] = system: respiratory syncytial virus (RSV A2); assay type: cell-based; conditions: human, hep-2 cells, 120 h, 200 µM
Text: as §1
RSV infection results in a marked reduction in cell viability and thus a lowered rate of formazan production. The assay method gives a very low absorbance value (practically zero) in wells which contain virus-infected cells and no compound or a compound which lacks anti-RSV activity. […]
as §9, with “follows.” for “follows. The assay was performed in 96 well microtiter plates seeded with 2.5×10^4 cells per well.”
as §10

EC50 ([1]; HEp-2, 120 h, HEp-2, solvent PBS, 5 day assay, drug replenished daily, read-out: ~EC50): 45 µM | EC50 ([1]; HEp-2, 120 h, HEp-2, solvent PBS, 5 day assay, drug replenished on day [number not given], read-out: ~EC50): 185 µM | EC50 ([1]; HEp-2, HEp-2, solvent DMSO, 6 day assay, drug added on day 1, extrapolated, read-out: ~EC50): 250 µM | EC50 ([1]; HEp-2, HEp-2, solvent PBS, 6 day assay, drug added on day 1, read-out: ~EC50): 431 µM
Structure (SMILES): CCCCN1C[C@H](O)[C@@H](O)[C@H](O)[C@H]1CO [Ex. 6, 1,5-(Butylimino) -1,5-dideoxy-D-glucitol]
CTI ([1]; solvent PBS, 5 day assay, drug added on day 1, from extrapolated CC50 and EC50): 275.5 | CTI ([1]; solvent PBS, 6 day assay, drug added on day 1, from extrapolated CC50, 7200 min): 21.8 | CC50 at 120 h ([2]; solvent DMSO, 5 day assay, drug added on day 1): 100 µM | CC50 at 120 h ([2]; solvent DMSO, 6 day assay, drug added on day 1, extrapolated): 365 µM | CC50 at 120 h ([2]; solvent PBS, 5 day assay, drug added on day 1, extrapolated): 76200 µM | CC50 at 120 h ([2]; solvent PBS, 6 day assay, drug added on day 1, extrapolated): 9400 µM | CC50 (HEp-2 cells; solvent DMSO): 156 µM | cytotoxicity at 120 h, 200 µM [3]: 17%

Structure (SMILES): CCCCN1CC(OC(C)=O)C(OC(C)=O)C(OC(C)=O)C1COC(C)=O [Ex. 7, 1,5-(Butylimino)-1,5-dideoxy-D-glucitol, tetraacetate]
cytotoxicity at 120 h, 200 µM [3]: 11% | enzymatic conversion in vivo of prodrug [4]: enzymatically converted in vivo to the compound of Ex. 6

Structure (SMILES): OCC1C(O)C(O)C(O)CN1CCCc1ccccc1 [compound 43, 1,5-(3-Phenylpropylimino)-1,5-dideoxy-D-glucitol]
cytotoxicity at 120 h, 200 µM [3]: 10%

Structure (SMILES): NC(=O)c1ncn([C@@H]2O[C@H](CO)[C@@H](O)[C@H]2O)n1 [ribavirin, 1-beta-D-ribofuranosyl-1H-1,2,4-triazole-3-carboxamide]
EC50 ([1]; HEp-2, 120 h, HEp-2, solvent water, 5 day assay, drug replenished daily): 0.1 µM | EC50 ([1]; HEp-2, 120 h, HEp-2, solvent water, 5 day assay, drug replenished on day [number not given]): 2.6 µM | EC50 ([1]; HEp-2, HEp-2, solvent water, 6 day assay, drug added on day 1): 19.1 µM | CC50 at 120 h ([2]; solvent water, 5 day assay, drug added on day 1): 38.3 µM | CC50 at 120 h ([2]; solvent water, 5 day assay, drug replenished daily): 40 µM | CC50 at 120 h ([2]; solvent water, 5 day assay, drug replenished on day [number not given]): 20.4 µM | CC50 at 120 h ([2]; solvent water, 6 day assay, drug added on day 1): 179 µM | CC50 (HEp-2 cells; solvent water): 32.4 µM and 62.8 µM and 52.4 µM | % CELL PROTECTION / % CYTOTOXICITY (CTI) [5]: 1.6 | cytotoxicity at 120 h, 200 µM [3]: 65%

Source: patent US5622972A, “Method for treating a mammal infected with respiratory syncytial virus” (priority 1996, dated 1997)
